Values after ≈ are worked out from the molar mass of the structure shown. Like-named read-outs stand apart in the source and are kept apart here. Numbered stars: 1 amine (or outer) side, 2 acyl side, 3 side chain; on linkers, the order of the positions; unused ones are H or OH. Bridge positions count the residues as written; N and C are the ends. Square brackets hold non-standard residues; d marks the D form. Peptide text beside a SMILES is read from it. * marks the point of attachment. Phe(3-CF3) = N[C@@H](Cc1cccc(C(F)(F)F)c1)C(=O)O; Piperazine(2S-CO,4-Me) = CN1CCN[C@H](C(=O)O)C1; NH(1,3-benzodioxol-5-yl) = c1cc2c(cc1N*)OCO2; Phe(3,5-Me2) = Cc1cc(C)cc(C[C@H](N)C(=O)O)c1; Phe(3-OMe) = COc1cccc(C[C@H](N)C(=O)O)c1; Phe(3-Me) = Cc1cccc(C[C@H](N)C(=O)O)c1; NH(4-Cl-2-F-phenyl) = Fc1cc(Cl)ccc1N*; Pro(4R-Me) = C[C@H]1CN[C@H](C(=O)O)C1; NH(4-Et-phenyl) = CCc1ccc(N*)cc1; NH(4-Me-phenyl) = Cc1ccc(N*)cc1; aThr = C[C@H](O)[C@H](N)C(=O)O; Pip = O=C(O)[C@@H]1CCCCN1; CO = O=C([*:1])[*:2]; X2 = Fc1cc(N*)ccc1Cl
How the values were obtained:
B. subtilis = assay: Minimal inhibitory concentration, microbroth dilution; type: cell-based; conditions: Bacillus subtilis, read-out: Minimal Inhibitory Concentrations (μM) B. subtilis
In short: (§1)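 MIC is recorded by eye as the lowest drug concentration that stops bacterial growth. Compound is serially diluted twofold in broth, starting at 200 μM final, and bacteria are added at roughly 10^5 cfu/mL. Incubation runs overnight at 37 °C under aerobic conditions, per CLSI guidance.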

S. pyogenes = assay: as above; type: cell-based; conditions: Streptococcus pyogenes, read-out: Minimal Inhibitory Concentrations (μM) S. pyogenes
In short: as §1

[1] = Microsomal metabolic stability; type: in vitro ADME, human
[2] = Plasma protein binding, rapid equilibrium dialysis; type: in vitro ADME, human; conditions: 10 μM
In short: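 Compound spiked at 10 μM (0.1% DMSO) into human plasma, dialysed against DPBS pH 7.4 across 8 K MWCO RED membrane for 4 h at 37 °C with shaking. Both chambers quantified by LC-MS against warfarin internal standard; % free = buffer/plasma concentration ×100, % bound = 100 − % free.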

S. pneumoniae = assay: Minimal inhibitory concentration, microbroth dilution; type: cell-based; conditions: Streptococcus pneumoniae, read-out: Minimal Inhibitory Concentrations (μM) S. pneumoniae
In short: as §1

Plasma pharmacokinetics = type: in vivo, male BALB/c mice; conditions: male, BALB/c, mouse, in vivo, iv
[3] = microsomal metabolic stability half-life, human liver microsomes
[4] = plasma binding, % Bound, human plasma

Row | SMILES | MIC (S. pyogenes; MIC) [µM] | Human ([1]; human, pH 7.4) [h] | Human ([2]; human, 4 h, pH 7.4) [%] | MIC (S. pneumoniae; MIC) [µM] | further results
1 | Cc1ccc(NC(=O)N[C@@H](Cc2cc(C)cc(C)c2)C(=O)N[C@@H]2C(=O)N3CCC[C@H]3C(=O)N3CCCC[C@H]3C(=O)N[C@@H](C)C(=O)N3C[C@H](C)C[C@H]3C(=O)O[C@H]2C)cc1 [Compound 2, (S)-3-(3,5-DIMETHYLPHENYL)-2-(3-(P-TOLYL)UREIDO)-N-((2R,6S,8AS,14AS,20S,21S,23AS)-2,6,21-TRIMETHYL-5,8,14,19,23-PENTAOXOOCTADECAHYDRO-1H,5H,14H,19H-PYRIDO[2,1-I]DIPYRROLO[2,1-C:2′,1′-L][1]OXA[4,7,10,13]TETRAAZACYCLOHEXADECIN-20-YL)PROPANAMIDE] ({NH(4-Me-phenyl)-CO}-[Phe(3,5-Me2)][aThr]P[Pip]A[Pro(4R-Me)]; ester 2-C) |  |  |  |  | MIC (B. subtilis): 0.625 µM (≈ 0.5 µg/mL); MIC (S. pyogenes): > 20 µM; Human [1, 3]: 0.62 h; Human [2, 4]: 99.3%
2 | Cc1cc(C)cc(C[C@H](NC(=O)Nc2ccc(Cl)cc2F)C(=O)N[C@@H]2C(=O)N3CCC[C@H]3C(=O)N3CCCC[C@H]3C(=O)N[C@@H](C)C(=O)N3C[C@H](C)C[C@H]3C(=O)O[C@H]2C)c1 [Compound 4, (S)-2-(3-(4-CHLORO-2-FLUOROPHENYL)UREIDO)-3-(3,5-DIMETHYLPHENYL)-N-((2R,6S,8AS,14AS,20S,21S,23AS)-2,6,21-TRIMETHYL-5,8,14,19,23-PENTAOXOOCTADECAHYDRO-1H,5H,14H,19H-PYRIDO[2,1-I]DIPYRROLO[2,1-C:2′,1′-L][1]OXA[4,7,10,13]TETRAAZACYCLOHEXADECIN-20-YL)PROPANAMIDE] ({NH(4-Cl-2-F-phenyl)-CO}-[Phe(3,5-Me2)][aThr]P[Pip]A[Pro(4R-Me)]; ester 2-C) | 1.25 (≈ 1.05 µg/mL) | 0.94 ± 0.09 | 99.8 ± 0.2 |  | MIC (B. subtilis; MIC): 1.25 µM (≈ 1.05 µg/mL)
3 | Cc1cccc(C[C@H](NC(=O)Nc2ccc(Cl)c(F)c2)C(=O)N[C@H]2COC(=O)[C@@H]3C[C@@H](C)CN3C(=O)[C@H](C)NC(=O)[C@@H]3CN(C)CCN3C(=O)[C@@H]3CCCN3C2=O)c1 [Compound 14, (S)-2-(3-(4-CHLORO-3-FLUOROPHENYL)UREIDO)-3-(M-TOLYL)-N-((6AS,12S,15AS,17R,21S,23AS)-2,17,21-TRIMETHYL-6,11,15,20,23-PENTAOXOOCTADECAHYDRO-2H,6H,11H,15H-PYRAZINO[2,1-I]DIPYRROLO[2,1-C:2′,1′-L][1]OXA[4,7,10,13]TETRAAZACYCLOHEXADECIN-12-YL)PROPANAMIDE] ({X2-CO}-[Phe(3-Me)]SP[Piperazine(2S-CO,4-Me)]A[Pro(4R-Me)]; ester 2-C) | 1.25 (≈ 1.03 µg/mL) | 0.73 ± 0.07 | 99.1 ± 0.2 | 0.625 (≈ 0.516 µg/mL) | 
4 | Cc1ccc(NC(=O)N[C@@H](Cc2cccc(C)c2)C(=O)N[C@H]2COC(=O)[C@@H]3C[C@@H](C)CN3C(=O)[C@H](C)NC(=O)[C@@H]3CN(C)CCN3C(=O)[C@@H]3CCCN3C2=O)cc1 [Compound 15, (S)-3-(M-TOLYL)-2-(3-(P-TOLYL)UREIDO)-N-((6AS,12S,15AS,17R,21S,23AS)-2,17,21-TRIMETHYL-6,11,15,20,23-PENTAOXOOCTADECAHYDRO-2H,6H,11H,15H-PYRAZINO[2,1-I]DIPYRROLO[2,1-C:2′,1′-L][1]OXA[4,7,10,13]TETRAAZACYCLOHEXADECIN-12-YL)PROPANAMIDE] ({NH(4-Me-phenyl)-CO}-[Phe(3-Me)]SP[Piperazine(2S-CO,4-Me)]A[Pro(4R-Me)]; ester 2-C) |  |  |  |  | MIC (S. pneumoniae): 0.313 µM (≈ 0.246 µg/mL); MIC (S. pyogenes): 0.313 µM (≈ 0.246 µg/mL); Human [1, 3]: 0.67 ± 0.04 h; Human [2, 4]: 95.2 ± 1.5%
5 | CCc1ccc(NC(=O)N[C@@H](Cc2cccc(C)c2)C(=O)N[C@H]2COC(=O)[C@@H]3C[C@@H](C)CN3C(=O)[C@H](C)NC(=O)[C@@H]3CN(C)CCN3C(=O)[C@@H]3CCCN3C2=O)cc1 [Compound 16, (S)-2-(3-(4-ETHYLPHENYL)UREIDO)-3-(M-TOLYL)-N-((6AS,12S,15AS,17R,21S,23AS)-2,17,21-TRIMETHYL-6,11,15,20,23-PENTAOXOOCTADECAHYDRO-2H,6H,11H,15H-PYRAZINO[2,1-I]DIPYRROLO[2,1-C:2′,1′-L][1]OXA[4,7,10,13]TETRAAZACYCLOHEXADECIN-12-YL)PROPANAMIDE] ({NH(4-Et-phenyl)-CO}-[Phe(3-Me)]SP[Piperazine(2S-CO,4-Me)]A[Pro(4R-Me)]; ester 2-C) | 0.156 (≈ 0.125 µg/mL) | 0.86 ± 0.07 | 98.5 ± 0.3 | 0.078 (≈ 0.0625 µg/mL) | AUC(0-inf) (Plasma pharmacokinetics): 3770 ng·h/mL; AUC(0-t) (Plasma pharmacokinetics): 3760 ng·h/mL; C^0 (Plasma pharmacokinetics): 18634.35 ng/mL; clearance (Plasma pharmacokinetics): 44.3 mL/min/kg; half-life (Plasma pharmacokinetics): 15 min; Vd (Plasma pharmacokinetics; 10 mg/kg, Route i.v., read-out: Vss): 0.57 L/kg
6 | Cc1cccc(C[C@H](NC(=O)Nc2ccc3c(c2)OCO3)C(=O)N[C@H]2COC(=O)[C@@H]3C[C@@H](C)CN3C(=O)[C@H](C)NC(=O)[C@@H]3CN(C)CCN3C(=O)[C@@H]3CCCN3C2=O)c1 [Compound 17, (S)-2-(3-(BENZO[D][1,3]DIOXOL-5-YL)UREIDO)-3-(M-TOLYL)-N-((6AS,12S,15AS,17R,21S,23AS)-2,17,21-TRIMETHYL-6,11,15,20,23-PENTAOXOOCTADECAHYDRO-2H,6H,11H,15H-PYRAZINO[2,1-I]DIPYRROLO[2,1-C:2′,1′-L][1]OXA[4,7,10,13]TETRAAZACYCLOHEXADECIN-12-YL)PROPANAMIDE] ({NH(1,3-benzodioxol-5-yl)-CO}-[Phe(3-Me)]SP[Piperazine(2S-CO,4-Me)]A[Pro(4R-Me)]; ester 2-C) | 1.25 (≈ 1.02 µg/mL) | 1.58 ± 0.25 | 95.4 ± 1.1 | 0.313 (≈ 0.256 µg/mL) | 
7 | C[C@@H]1C[C@H]2C(=O)OC[C@H](NC(=O)[C@H](Cc3cccc(C(F)(F)F)c3)NC(=O)Nc3ccc(Cl)cc3F)C(=O)N3CCC[C@H]3C(=O)N3CCN(C)C[C@H]3C(=O)N[C@@H](C)C(=O)N2C1 [Compound 18, (S)-2-(3-(4-CHLORO-2-FLUOROPHENYL)UREIDO)-3-(3-(TRIFLUOROMETHYL)PHENYL)-N-((6AS,12S,15AS,17R,21S,23AS)-2,17,21-TRIMETHYL-6,11,15,20,23-PENTAOXOOCTADECAHYDRO-2H,6H,11H,15H-PYRAZINO[2,1-I]DIPYRROLO[2,1-C:2′,1′-L][1]OXA[4,7,10,13]TETRAAZACYCLOHEXADECIN-12-YL)PROPANAMIDE] ({NH(4-Cl-2-F-phenyl)-CO}-[Phe(3-CF3)]SP[Piperazine(2S-CO,4-Me)]A[Pro(4R-Me)]; ester 2-C) | 0.625 (≈ 0.55 µg/mL) | 0.75 ± 0.11 | 99.0 ± 0.1 | < 0.02 | 
8 | COc1cccc(C[C@H](NC(=O)Nc2ccc(Cl)cc2F)C(=O)N[C@H]2COC(=O)[C@@H]3C[C@@H](C)CN3C(=O)[C@H](C)NC(=O)[C@@H]3CN(C)CCN3C(=O)[C@@H]3CCCN3C2=O)c1 [Compound 19, (S)-2-(3-(4-CHLORO-2-FLUOROPHENYL)UREIDO)-3-(3-METHOXYPHENYL)-N-((6AS,12S,15AS,17R,21S,23AS)-2,17,21-TRIMETHYL-6,11,15,20,23-PENTAOXOOCTADECAHYDRO-2H,6H,11H,15H-PYRAZINO[2,1-I]DIPYRROLO[2,1-C:2′,1′-L][1]OXA[4,7,10,13]TETRAAZACYCLOHEXADECIN-12-YL)PROPANAMIDE] ({NH(4-Cl-2-F-phenyl)-CO}-[Phe(3-OMe)]SP[Piperazine(2S-CO,4-Me)]A[Pro(4R-Me)]; ester 2-C) | 10 (≈ 8.41 µg/mL) | 0.61 ± 0.06 | 98.9 ± 0.2 | 2.5 (≈ 2.1 µg/mL) | 

From patent publication US10570179B2, “Substituted urea depsipeptide analogs as activators of the CLPP endopeptidase” (priority 2016, dated 2020)
